“Also recorded” adds a separate entry of the source.
What was measured:
ILIβ mRNA = experiment: RT-PCR of mouse liver, ILIβ; type: in vivo; conditions: HFD+NCT vs HFD, FIG. 5C
Description: NCT oral administration. Four-week-old male C57BL/6J (JAX cat #000664) mice were purchased from Jackson laboratory and were maintained in a 12 h light/dark cycle throughout the experiment. Prior to the experiments, mice were acclimated for 2 weeks. Six-week-old mice with similar body weights were randomized to a normal diet (NC), a high fat diet (HFD) (Research Diets, cat #D12492 60 kcal % fat) or HFD containing 4000 ppm NCT (HFD+NCT) (Research Diets, 60 kcal % fat+4000 ppm NCT), which was calculated to provide approximately 400 mg/kg/d NCT. HFD chow containing NCT was made with gray dye to distinguish it from regular HFD chow that had green dye. Mice for each treatment group were placed in separate cages. Equal amounts of fresh chow were provided every week to all mice. Body weight gain and food intake were measured every week for 10 weeks. After 10 weeks of chow treatment, mice were sacrificed for analysis. […]
RT-PCR. […] Quantitative real time PCR (RT-PCR) analysis was performed using SYBR® Select Master Mix (Applied Biosystems) and an ABI 7900HT thermal cycler (Applied Biosystems, Thermo Fisher Scientific). Ct values were normalized to 18s rRNA and are expressed as fold change over samples from mice fed NC or cultured human hepatocytes without NCT.

[1] = tested on: C57BL/6 mice fed high fat diet (HFD); experiment: HFD induced weight gain and hepatic steatosis, NCT in HFD chow for 10 weeks; type: in vivo
Description: (§1) NCT oral administration. Four-week-old male C57BL/6J (JAX cat #000664) mice were purchased from Jackson laboratory and were maintained in a 12 h light/dark cycle throughout the experiment. Prior to the experiments, mice were acclimated for 2 weeks. Six-week-old mice with similar body weights were randomized to a normal diet (NC), a high fat diet (HFD) (Research Diets, cat #D12492 60 kcal % fat) or HFD containing 4000 ppm NCT (HFD+NCT) (Research Diets, 60 kcal % fat+4000 ppm NCT), which was calculated to provide approximately 400 mg/kg/d NCT. HFD chow containing NCT was made with gray dye to distinguish it from regular HFD chow that had green dye. Mice for each treatment group were placed in separate cages. Equal amounts of fresh chow were provided every week to all mice. Body weight gain and food intake were measured every week for 10 weeks. After 10 weeks of chow treatment, mice were sacrificed for analysis. All animal experiments were approved by the Institutional Animal Care and Use Committee (IACUC) of the Sanford Burnham Prebys Medical Discovery Institute in accordance with national regulations. Sample size was chosen based on the prior study of NCT delivered by IP injection.
Sample collection. Mouse samples were collected as described previously. Briefly, on the final day of treatment mice received dextrose (3 g/kg of body weight) by IP injection to stimulate insulin secretion, which inhibits FFA release from adipocytes, leaving liver-derived FFA as the major source of circulating FFA. One hour later, blood samples were collected via retro-orbital bleeding and mice were euthanized using pentobarbital. Mice were dissected aseptically and liver, epididymal fat, and body weights were measured and pictures taken. Dissected liver samples were washed immediately in sterile cold PBS and cut into small pieces. Half of the liver samples were snap frozen using liquid nitrogen and stored at −80° C. for RNA, protein isolation, and liver lysate preparations. The other half were fixed in 4% of cold paraformaldehyde (PFA, Santa Cruz Biotechnology, USA) and processed for histomorphometry and immunofluorescence.
Oil Red O staining (in vivo) and analysis. Oil red O staining was performed as described previously. Slides containing frozen liver tissue sections from mice were air dried for 10-20 min followed by rehydration in distilled water. Sections were immersed in absolute propylene glycol (Cat #151957, MP Biomedicals, LLC, USA) for 2 min followed by 0.5% in Oil red O solution (Cat #K043, Poly Scientific R&D, USA) for 2 h. Slides were then differentiated in 85% propylene glycol solution, washed with dH2O for 2 h, and mounted using glycerin jelly mounting medium. All slides were scanned at a magnification of ×20 using the Aperio Scanscope FL system (Aperio Technologies Inc., Vista, CA, USA). The liver area stained with oil red O was measured using image J software as described, with some modifications as follow, Oil red O-stained liver images were opened in Image J software. Using the Analyze>Set Scale command, the scale bar of the images was set to 200 μm. RGB images were then converted into grayscale images using the Image>Type>RGB Stack command and were split into red, blue and green channels. Using the Image>Adjust>Threshold command, the threshold was manually set to highlight the Oil red O-stained lipid droplets in the green channel. The same threshold was used for all the images in all treatment groups and the % oil red O-stained area was obtained using the Analyze->Measure tool command. Fold change was calculated by normalizing the values to images from mice fed normal chow.
Triglyceride analysis. The TG level in mouse liver, serum, and stool was measured according to manufacturer's instructions using the Triglyceride calorimetric Assay Kit (Cat #10010303, Cayman Chemicals, USA). Liver and stool TG was normalized with liver and stool weight, respectively. Fold change was calculated by normalizing to values from mice fed NC. […]

citrate synthase = experiment: Citrate synthase activity in liver homogenate; type: in vivo, mouse; conditions: HFD+NCT vs HFD, FIGS. 3A-3C
Description: as §1, with “Sample size was chosen based on the prior study of NCT delivered by IP injection.” left out
Citrate synthase activity. Citrate synthase activity in liver homogenate was measured according to manufacturer's instructions using a calorimetry based MitoCheck Citrate Synthase Activity Assay Kit (Cat #701040, Cayman Chemicals, USA).

[2] = HFD containing 4000 ppm NCT, end of the experiment at 10 weeks

Structure (SMILES): O=C(/C=C/c1ccc(O)c(O)c1)NCCc1ccc(O)cc1 [NCT, N-trans caffeoyltyramine]
- expression level of ILIβ in mouse liver (ILIβ mRNA): non-significant
- expression level of ILIβ in mouse liver (ILIβ mRNA; listed as Compound A): not affect
- body weight compared with mice fed HFD alone ([1]; C57BL/6 mice, HFD containing 4000 ppm NCT, 10 weeks): substantially less; also recorded: weighed less
- week at which lower body weight than HFD alone became evident ([1]; HFD containing 4000 ppm NCT): 5 week
- body weight less than mice fed HFD [1, 2]: ~10 g
- difference in body weight vs mice fed HFD [1, 2]: 35-40%
- Oil Red O staining of liver ([1]; HFD+NCT vs HFD, 10 weeks): decreased
- liver redness ([1]; HFD+NCT vs HFD, 10 weeks): increase; also recorded: redder
- liver size ([1]; HFD+NCT vs HFD, 10 weeks): reductions
- liver weight ([1]; HFD+NCT vs HFD, 10 weeks): lower
- obesity ([1]; HFD+NCT vs HFD, 10 weeks): markedly less obese
- subcutaneous fat ([1]; HFD+NCT vs HFD, 10 weeks): substantially less
- visceral adiposity ([1]; HFD+NCT vs HFD, 10 weeks): reductions
- hepatic TG level ([1]; HFD+NCT vs HFD, 10 weeks, normalized to liver weight): decreased
- epididymal fat pad weight ([1]; HFD+NCT vs HFD, end of study, normalized with total body weight): no change
- toxicity from NCT consumption ([1]; mice fed HFD containing NCT): no evidence of any toxicity
- mitochondrial mass ([1]; mice fed HFD containing NCT vs HFD alone): increased
- citrate synthase level in liver (citrate synthase): reverse the depression
